The values below come from patent US5874481A, “Fluorochemical solutions for the delivery of lipophilic pharmaceutical agents” (priority 1995, dated 1999).

Converted amounts (≈) assume the structure as drawn. Read-outs that look alike come from different tables or passages of the source.

Data set [1] can be described thus: Solubility in perfluorooctyl ethane (Example 6). The class given is physicochemical. The settings on record: organic solvent or mixture; saturated in n-C8F17C2H5; read-out: g/L in C8F17C2H5. As to the method:
A pharmaceutical fluorochemical solution was prepared as follows:
An aliquot of n-C8 F17 C2 H5 (2 mL; F-Tech, Inc.) was saturated with "Drug" (Sigma Chemical Co.).

The conditions of data set [2]: cited from earlier work.
Data set [3] is described as follows: Solubility of prednisone in fluorocarbons (Example 5). The class given is physicochemical. The following applies: organic solvent or mixture, read-out: mg/L of prednisone in fluorochemical matrix. As for the experimental part:
A prednisone containing perfluorochemical solution was prepared as follows:
The column was a 25 cm amino column (Rainin), and the detection was carried out by a UV detector (Beckman System Gold) at the end of the column.

For data set [4] the following is noted: in vivo, cited from earlier work.
The nature of data set [5]: Effect of fluorochemical lipophilicity on pharmaceutical solubility (Example 7). The class given is physicochemical. As for the experimental part:
Pharmaceutical fluorochemical solutions were prepared as follows: […]

Setting [6] is: octanol/pH 7.4 isotonic phosphate buffer at 37° C.

For the molecule `c1ccc2cc3ccccc3cc2c1` [Antracene], the solubility in data set [1] amounted to 0.09 g/L (≈ 0.505 mM). The “log Po/w” value in data set [2] (Example 6, source not stated) is reported as 4.473.

`CC/C(=C(/CC)c1ccc(O)cc1)c1ccc(O)cc1` [^3 H -diethylstilbesterol, diethylstilbesterol]: the “Octanol/water partition coefficient Po/w” value in data set [2] (octanol/water) is given as 1.26 × 10^5.

For the molecule `CN(C)CCCN1c2ccccc2CCc2ccc(Cl)cc21` [clomipramine], the “Octanol/water partition coefficient Po/w” value in data set [2] (octanol/water, pH 7.4) is reported as 3.80 × 10^3.

Turning to `c1ccc2cc3ccccc3cc2c1` [^14 C-anthracene, anthracene], the “Octanol/water partition coefficient Po/w” value in data set [2] (octanol/water) is 3.16 × 10^4.

In the case of `CCc1ccccc1O` [o-Ethylphenol], the solubility in data set [1] was found to be 9.4 g/L (≈ 76.9 mM).

Regarding `c1ccc2cc3cc4ccccc4cc3cc2c1` [2,3 Benzanthracene], in data set [1], the solubility was 0.0003 g/L (≈ 0.00131 mM). Besides, the “log Po/w” value in data set [2] (Example 6, source not stated) was 5.807.

Take `OC(CCN1CCCCC1)(c1ccccc1)C1CCCCC1` (stereo not shown) [trihexyphenidyl]: in data set [2] (octanol/water, pH 7.4), the “Log Po/w” value is on record as 3.17 and the “Octanol/water partition coefficient Po/w” value is on record as 1.47 × 10^3.

As for `C[C@]12C=CC(=O)C=C1CC[C@@H]1[C@@H]2C(=O)C[C@@]2(C)[C@H]1CC[C@]2(O)C(=O)CO` [prednisone], the solubility in data set [3] (1,4-dibromooctafluorobutane with 10% ethanol, in 1,4-Dibromooctafluorobutane with 10% Ethyl Alcohol) is 1700 mg/L (≈ 4.74 mM); in data set [3] (1,4-dibromooctafluorobutane with 50% ethanol, in 1,4-Dibromooctafluorobutane with 50% Ethyl Alcohol), 3800 mg/L (≈ 10.6 mM); in data set [3] (n-c6f13c2h5 with 3% ethanol, in n-C6F13C2H5 with 3% Ethyl Alcohol), 27 mg/L (≈ 0.0753 mM); in data set [3] (n-c6f13c6h13 with 3% ethanol, in n-C6F13C6H13 with 3% Ethyl Alcohol), 80 mg/L (≈ 0.223 mM); in data set [3] (n-c8f17br with 3% ethanol, in n-C8F17Br with 3% Ethyl Alcohol), below 1 mg/L; in data set [3] (in 1,4-Dibromooctafluorobutane), below 1 mg/L.

In the case of `Cc1ccc(O)cc1` [p-Cresol], in data set [1], the solubility stood at 3.9 g/L (≈ 36.1 mM). For the same molecule, in data set [2] (Example 6, source not stated), the “log Po/w” value is on record as 1.9.

Take `CC(C)=CCN1CCC2(C)c3cc(O)ccc3CC1C2C` (stereo not shown) [pentazocin]: in data set [2] (setting [6]), the “Log Po/w” value is reported as 2.18 and the “Octanol/water partition coefficient Po/w” value is on record as 150.

As for `CC(=O)O[C@H]1C(=O)[C@@]2(C)[C@H]([C@H](OC(=O)c3ccccc3)[C@]3(O)C[C@H](OC(=O)[C@H](O)[C@@H](NC(=O)c4ccccc4)c4ccccc4)C(C)=C1C3(C)C)[C@]1(OC(C)=O)CO[C@@H]1C[C@@H]2O` [paclitaxel], the systemic toxicities entry in data set [4] (iv) was “high systemic toxicities”. Also, the “systemic toxicities associated with paclitaxel” value in data set [4] is “cardiac toxicity and neurotoxicity”.

Take `CCCCCCCCCCCCCCCc1cccc(O)c1` [m-Pentadecylphenol]: the solubility in data set [1] stood at 0.4 g/L (≈ 1.31 mM); in data set [5] (c6f13c2h5, organic solvent or mixture), 700 µg/mL (≈ 2.3 mM); in data set [5] (c6f13c6h13, organic solvent or mixture), 4100 µg/mL (≈ 13.5 mM); in data set [5] (c6f13c8h17, organic solvent or mixture), 5600 µg/mL (≈ 18.4 mM); in data set [5] (c8f17c2h5, organic solvent or mixture) it was 400 µg/mL (≈ 1.31 mM); in data set [5] (c8f17c4h9, organic solvent or mixture), 600 µg/mL (≈ 1.97 mM). In data set [5] (c8f17c6h13, organic solvent or mixture), the solubility came to 1700 µg/mL (≈ 5.58 mM). In addition, the “log Po/w” value in data set [2] (octanol/water) was 9.53.

Regarding `CCCCCC(=O)OCCOCn1cnc2c(=O)[nH]c(N)nc21` [hexanoyl acyclovir], the “Log Po/w” value in data set [2] (setting [6]) was 0.93.

On to `CC(CN1c2ccccc2Sc2ccccc21)N(C)C` (stereo not shown) [promethazine], for which, in data set [2] (setting [6]), the “Log Po/w” value is reported as 3.10 and the “Octanol/water partition coefficient Po/w” value was 1.27 × 10^3.

Regarding `CCc1cc2c(s1)N(C)C(=O)CN=C2c1ccccc1Cl` [clotiazepam], in data set [2] (setting [6]), the “Log Po/w” value is reported as 3.49 and the “Octanol/water partition coefficient Po/w” value was 3.06 × 10^3.

For `c1ccc2ccccc2c1` [Naphthalene], the solubility turned out to be 8.1 g/L (≈ 63.2 mM) in data set [1]; 12000 µg/mL (≈ 93.6 mM) in data set [5] (organic solvent or mixture, in C6F13C2H5, read-out: Naphthalene); 30000 µg/mL (≈ 234 mM) in data set [5] (organic solvent or mixture, in C6F13C6H13, read-out: Naphthalene); 40000 µg/mL (≈ 312 mM) in data set [5] (organic solvent or mixture, in C6F13C8H17, read-out: Naphthalene); 8000 µg/mL (≈ 62.4 mM) in data set [5] (organic solvent or mixture, in C8F17C2H5, read-out: Naphthalene); 14000 µg/mL (≈ 109 mM) in data set [5] (organic solvent or mixture, in C8F17C4H9, read-out: Naphthalene). Further, the solubility in data set [5] (organic solvent or mixture, in C8F17C6H13, read-out: Naphthalene) turned out to be 23000 µg/mL (≈ 179 mM). In data set [2] (Example 6, source not stated), the “log Po/w” value was 3.387.

Turning to `CC(=O)[C@H]1CC[C@H]2[C@@H]3CCC4=CC(=O)CC[C@]4(C)[C@H]3CC[C@]12C` [^14 C-progesterone, progesterone], the “Octanol/water partition coefficient Po/w” value in data set [2] (octanol/water) is on record as 7.9 × 10^3.

For the molecule `CCCCC(=O)OCCOCn1cnc2c(=O)[nH]c(N)nc21` [valeryl acyclovir], the “Log Po/w” value in data set [2] (setting [6]) is given as 0.30.

With `CCCCc1ccccc1` [Butylbenzene], in data set [1], the solubility was 116 g/L (≈ 862 mM). In data set [2] (Example 6, source not stated), the “log Po/w” value was 4.

For the molecule `CCCCCCc1ccccc1` [Hexylbenzene], the solubility in data set [1] stood at 67.1 g/L (≈ 413 mM). For the same molecule, the “log Po/w” value in data set [2] (octanol/water) is on record as 5.52.

On to `CCCCCCCCCCCC(=O)N1CCCCCC1` [^14 C-hexamethylene lauramide, hexamethylene lauramide], for which, in data set [2] (octanol/water), the “Log Po/w” value is 7.3 and the “Octanol/water partition coefficient Po/w” value is reported as 2.00 × 10^7.

For `CCCCN1CCCCC1C(=O)Nc1c(C)cccc1C` (stereo not shown) [bupivacaine], the “Octanol/water partition coefficient Po/w” value in data set [2] (octanol/water) is 28.2.
